Assays:
[1] = Volatilization on flashbar and HPLC purity analysis of the condensation aerosol; assay type: physicochemical; details: heated to about 400° C. within about 200 ms, 15 L/min air
Excerpt: Purity of a diuretic containing aerosol may be determined using a number of different methods. It should be noted that when the term “purity” is used, it refers to the percentage of aerosol minus the percent byproduct produced in its formation. Byproducts for example, are those unwanted products produced during vaporization. For example, byproducts include thermal degradation products as well as any unwanted metabolites of the active compound or compounds. Examples of suitable methods for determining aerosol purity are described in Sekine et al., Journal of Forensic Science 32:1271-1280 (1987) and in Martin et al., Journal of Analytic Toxicology 13:158-162 (1989).
One suitable method involves the use of a trap. In this method, the aerosol is collected in a trap in order to determine the percent or fraction of byproduct. Any suitable trap may be used. Suitable traps include filters, glass wool, impingers, solvent traps, cold traps, and the like. Filters are often most desirable. The trap is then typically extracted with a solvent, e.g. acetonitrile, and the extract subjected to analysis by any of a variety of analytical methods known in the art, for example, gas, liquid, and high performance liquid chromatography particularly useful.
(§1) About 1.1 mg of ethacrynic acid (MW 303, melting point 122° C., oral dose 25 mg) was dip coated onto the stainless steel surface of a flashbar apparatus at a thickness of about 1.32 μm. (The flashbar is a cylinder 3.5 cm long and 1.3 cm in diameter consisting of a hollow tube of 0.005″ thick stainless steel.) Brass electrodes were connected to either end of the steel cylinder. The coated flashbar was secured in an electrical mount, which connected to two 1.0 Farad capacitors in parallel. An airway was provided by a 2 cm diameter glass sleeve placed around the flashbar. 15 L/min of room air were pulled by a house vacuum through the vaporization chamber and a filter housing, which contained a two-micron Teflon filter. A power supply charged the capacitors to 20.5 volts, at which point the circuit was closed with a switch and the stainless steel flashbar was resistively heated to about 400° C. within about 200 milliseconds. The drug aerosolized and flowed through the airway and into the filter. The Teflon filter was extracted with 5 mL of acetonitrile, and the sample was run through an HPLC for purity analysis.
as §1, with “1.01” for “1.1”, “1.21” for “1.32”
About 1.09 mg of bumetanide (MW 364, melting point 231° C., oral dose 0.5 mg) was dip coated onto the stainless steel surface of a flashbar apparatus at a thickness of about 1.3 μm. (The flashbar is a cylinder 3.5 cm long and 1.3 cm in diameter consisting of a hollow tube of 0.005″ thick stainless steel.) Brass electrodes were connected to either end of the steel cylinder. The coated flashbar was secured in an electrical mount, which connected to two 1.0 Farad capacitors in parallel. […]

[2] = assay type: in vivo, Beagle dog
Excerpt: This example is meant to illustrate one way in which toxicology and pharmacokinetic data may be investigated with respect to the bumetanide condensation aerosols described herein. Toxicology and pharmacokinetic data may be gathered by studying daily oropharyngeal inhalation of bumetanide condensation aerosols over a 14 day period using a beagle dog model.
Before treatment initiation, all animals are weighed and assigned to treatment groups using a randomization procedure. Animals are assigned into the following groups: bumetanide high dose, bumetanide mid dose, bumetanide low dose, and vehicle control at 3 animals per sex per dose. The dose levels for bumetanide are generally approximately 0.1 mg/kg for the low dose group, 0.5 mg/kg for the mid dose group, and 2 mg/kg for the high dose group. The dose levels can be refined through an initial dose ranging toxicology study.
Animals are treated with the test aerosols using an oropharyngeal face mask fitted with inlet and outlet tubes. During treatment, animals are placed in a restraint sling. A mask that allows the inhalation of test material to dogs is used. The test article is generated by vaporizing bumetanide by heating to roughly 400° C. The bumetanide is an approximately 1 micron thick film coating on a stainless steel foil, which was deposited on the foil by dip coating the foil into a solution of bumetanide dissolved in organic solvent.
The resulting aerosol formed by the condensation of the vaporized bumetanide is introduced into a mixing chamber via pre-dried compressed air. The mixing chamber is operated under slight positive pressure maintained by means of a gate valve located in the exhaust line. A vacuum pump is used to exhaust the inhalation chamber at the required flow rate and draw the contaminated air (excess aerosol and expired air) through a purifying system consisting of a 5 μm coarse filter before expelling the air from the building. The resulting atmosphere is carried to the dog mask via a delivery tube.
To ensure that the doses are correct, prior to the start of the treatment each day, atmosphere characterization of the test article aerosol is performed. Analysis of the aerosol particle size distribution for each bumetanide dose is conducted using a Cascade Impactor. Typical mass median aerodynamic diameter and geometric standard deviation measured during the study are 1.5 μm±2. Actual mask output concentrations of aerosol are measured during each exposure day from a sampling port from the animal breathing zone.
The achieved dose of active ingredient (mg/kg/day) for each treatment level is determined as follows: Achieved Dose of Active Ingredient=[RMV×Active Concentration×T×D]/BW
Where the achieved dose of the active ingredient is in mg/kg/day; the RMV (i.e., respiratory minute volume) is in L/min; the Active Concentration (i.e., chamber concentration of active ingredient determined by chemical analysis) is in mg/L; T (i.e., treatment time) is in minutes; D is the total aerosol deposition fraction, according to the particle size; and BW (i.e., mean body weight per sex per group from the regular body weight occasions during treatment) is in kg.
Dogs are treated with the bumetanide aerosol using the above approach to deliver the drug aerosol and compute the delivered dose. The exposure period required to deliver a dose is typically approximately 10 minutes. Plasma samples for pharmacokinetic analysis are collected on one or more treatment days. Samples are typically collected pre-dose, 2 minutes into dosing, and the end of dosing, 20 minutes post dose, 1 hour post dose, 3 hours post dose, 9 hours post dose, and 24 hours post dose. Samples are analyzed by an appropriate method such as LC/MS or LC/MS/MS to determine the pharmacokinetics of bumetanide absorption and elimination. […]

Compound: CC(=O)S[C@@H]1CC2=CC(=O)CC[C@]2(C)[C@H]2CC[C@@]3(C)[C@@H](CC[C@@]34CCC(=O)O4)[C@H]12 [spironolactone]
- aerosol purity (HPLC) ([1]; film about 0.85 μm on stainless steel): 100%
- aerosol purity (HPLC) ([1]; film about 1.01 μm on stainless steel): 100%

Compound: CCCCNc1cc(C(=O)O)cc(S(N)(=O)=O)c1Oc1ccccc1 [bumetanide]
- mass median aerodynamic diameter of the aerosol ([2]; Cascade Impactor, typical value during the study): 1.5 μm
- food consumption ([2]; dog, in vivo): roughly normal
- gross pathology at necropsy ([2]; dog, in vivo): No treatment related findings
- histopathological examination of gross lesions ([2]; dog, in vivo): no treatment related findings
- histopathological examination of larynx, trachea, mainstem bronchi, lungs ([2]; dog, in vivo): No treatment related abnormalities are observed
- time of peak plasma levels ([2]; dog, in vivo): ≤ 10 min
- duration of the increase in urination following treatment ([2]; dog, inhalation): approximately 4 hour
- urination immediately following drug administration ([2]; dog, inhalation): an increase in urination is noted
- aerosol purity (HPLC) ([1]; film about 1.3 μm on stainless steel): 98.44%

Compound: C=C(CC)C(=O)c1ccc(OCC(=O)O)c(Cl)c1Cl [ethacrynic acid]
- aerosol purity (HPLC) ([1]; film about 1.21 μm on stainless steel): 99.57%
- aerosol purity (HPLC) ([1]; film about 1.32 μm on stainless steel): 99.83%

Compound: Nc1nc(N)c2nc(-c3ccccc3)c(N)nc2n1 [triamterene]
- aerosol purity (HPLC) ([1]; film about 0.97 μm, from 88% formic acid): 99.76%
- aerosol purity (HPLC) ([1]; film about 1.11 μm, manually coated): 100%

Source: patent US7981401B2, “Diuretic aerosols and methods of making and using them” (priority 2002, dated 2011)
